Measurements taken from patent publication US20250296940A1, “ANNULATED 2-AMINO-3-CYANO THIOPHENES AND DERIVATIVES FOR THE TREATMENT OF CANCER” (Boehringer Ingelheim Int'l GmbH Corp., priority 2021, published 2025).
pIC50: −log10 of the molar value. Values after ≈ are worked out from the molar mass of the structure shown. Like-named read-outs stand apart in the source and are kept apart here.

Columns and labels:
Ba/F3 KRASG12C cells = Ba/F3 KRASG12C cells (Homo sapiens, UniProt P01116, G12C, cells depend on it); experiment: Ba/F3 cell model proliferation assay (AlamarBlue, 72 h); format: cell-based; settings: without IL-3, read-out: IC50 Ba/F3 KRASG12C
Ba/F3 KRASG12C cells, sequence (P01116 whole entry G12C): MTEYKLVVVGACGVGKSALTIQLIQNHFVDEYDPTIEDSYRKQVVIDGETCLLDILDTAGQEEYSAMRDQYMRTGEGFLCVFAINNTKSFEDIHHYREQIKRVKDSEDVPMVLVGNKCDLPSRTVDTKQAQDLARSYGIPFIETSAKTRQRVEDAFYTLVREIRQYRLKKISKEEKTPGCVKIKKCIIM
Description: Plasmids containing KRASG12 mutants were obtained from GeneScript. […] Retrovirus was added to Ba/F3 cells. To ensure infection, 4 μg/mL polybrene was added and cells were spinfected. […] As a control, parental Ba/F3 cells were used to show selection status. Selection was considered successful when parental Ba/F3 cells cultures died. […] Ba/F3 cells harboring the empty vector were used as a control. Approximately ten days before conducting the experiments, puromycin was left out.
Compounds were added using an Access Labcyte Workstation with a Labcyte Echo 550 or 555 acoustic dispenser. All treatments were performed in technical duplicates. The assay is run using a fully automated robotic system. […] AlamarBlue™ (ThermoFisher), a viability stain, was added and fluorescence measured in the PerkinElmer Envision HTS Multilabel Reader. The raw data were imported into and analyzed with the Boehringer Ingelheim proprietary software MegaLab (curve fitting based on the program PRISM, GraphPad Inc.).

[1] = test system: pERK (Thr202/Tyr204) in NCI-H358 cells (KRAS G12C mutation); experiment: ERK phosphorylation assay (assay 1, NCI-H358); format: cell-based; settings: Homo sapiens; NCI-H358 (assay 1), 1 h compound incubation
Excerpt: Low IC50 values in this assay setting are indicative of high potency of the compounds according to the invention. […]
• RPMI-1640 Medium (ATCC® 30-2001™) • Fetal Bovine Serum (FBS) from HyClone (SH30071.03) • Non-essential amino acids from Thermo Fischer Scientific (11140035) • Pyruvate from Thermo Fischer Scientific (11360039) • Glutamax from Thermo Fischer Scientific (35050061) • 384 plates from Greiner Bio-One (781182) • Proxiplate™ 384 from PerkinElmer Inc. (6008280) • AlphaLISA SureFire Ultra p-ERK1/2 (Thr202/Tyr204) Assay Kit (ALSU-PERK-A500) EGF from Sigma (E4127) • Acceptor Mix: Protein A Acceptor Beads from PerkinElmer (6760137M) • Donor Mix: AlphaScreen Streptavidin-coated Donor Beads from PerkinElmer (6760002) • Trametinib • Staurosporine from Sigma Aldrich (S6942)
Cells are seeded at 40,000 cells per well in/60 μL of RPMI with 10% FBS, non-essential amino acids, pyruvate and glutamax in Greiner TC 384 plates. The cells are incubated for 1 h at room temperature and then incubated overnight in an incubator at 37° C. and 5% CO2 in a humidified atmosphere. 60 nL compound solution (10 mM DMSO stock solution) is then added using a Labcyte Echo 550 device. After a 1 h incubation in the aforementioned incubator the medium is removed after centrifugation and the cells lysed by addition of 20 μL of 1.6-fold lysis buffer from the AlphaLISA SureFire Ultra pERK1/2 (Thr202/Tyr204) Assay Kit with added protease inhibitors, 100 nM trametinib+100 nM staurosporine. After 20 minutes of incubation at room temperature with shaking, 6 μL of each lysate sample is transferred to a 384-well Proxiplate and analyzed for pERK (Thr202/Tyr204) with the AlphaLISA SureFire Ultra pERK1/2 (Thr202/Tyr204) Assay Kit. 3 μL Acceptor Mix and 3 μL Donor Mix are added under subdued light and incubated for 2 h at room temperature in the dark, before the signal is measured on a PerkinElmer Envision HTS Multilabel Reader. The raw data were imported into and analyzed with the Boehringer Ingelheim proprietary software MegaLab (curve fitting based on the program PRISM, GraphPad Inc.).
IC50 values of representative compounds (I) according to the invention measured with this assay are presented in table 22 (IC50s from assay 2 are marked with *, all others are from assay 1).

[2] = test system: NCI-H358 cells (NSCLC, G12C); experiment: NCI-H358 CTG proliferation assay (120 h); format: cell-based; settings: Homo sapiens, NCI-H358, CellTiter-Glo
Description: NCI-H358 cells (ATCC No. CRL-5807) are dispensed into white bottom opaque 96 well plates (Perkin Elmer cat no. 5680) at a density of 2000 cells per well in 100 μL RPMI-1640 ATCC-Formulation (Gibco #A10491)+10% FCS (fetal calf serum). […] Compounds (10 mM stock in DMSO) are added at logarithmic dose series using the HP Digital Dispenser D300 (Tecan), normalizing for added DMSO and including DMSO controls. For the TO time point measurement, untreated cells are analyzed at the time of compound addition. Plates are incubated for 120 h, and cell viability is measured using CellTiter-Glo luminescent cell viability reagent (Promega product code G7570). Viability (stated as percent of control) is defined as relative luminescence units RLU of each well divided by the RLU of cells in DMSO controls. IC50 values are determined from viability measurements by non-linear regression using a four parameter model.
IC50 values of representative compounds according to the invention measured with these assays in the indicated cell lines: […]

[3] = Solubility measurement (DMSO solution precipitation method); format: physicochemical; settings: aqueous buffer, kinetic from dmso stock, ambient temperature
Description: The DMSO solution is diluted with an aqueous medium (McIlvaine buffer with pH=4.5 or 6.8) to a final concentration of 250 μM. After 24 h of shaking at ambient temperature a potentially formed precipitate is removed by filtration. The concentration of the test compound in the filtrate is determined by LC-UV methods by calibrating the signal to the signal of a reference solution with complete dissolution of the test compound in acetonitrile/water (1:1) with known concentration.
Data obtained with the disclosed assay for a selection of compounds (I) according to the invention: […]

[4] = McIlvaine buffer pH 4.5, 24 h, read-out: Solubility pH 4.5
[5] = McIlvaine buffer pH 6.8, 24 h, read-out: Solubility pH 6.8

Row | SMILES | GI50 (Ba/F3 KRASG12C cells) | pIC50 [1] | pIC50 [2] | solubility at 24 h [3, 4] | solubility at 24 h [3, 5]
1 | C=C(F)C(=O)N1[C@@H](C)CN(c2cc(-c3onc4c3CCC[C@@]43CCCc4sc(N)c(C#N)c43)nc(O[C@@H](C)[C@@H]3CCCN3C)n2)C[C@@H]1C [Ia-3] | 3.7 nM | 7.79 | 8.15 | 116 µg/mL (≈ 172 µM) | < 1 µg/mL
2 | C=CC(=O)N1CCN(c2cc(O[C@@H](C)[C@@H]3CCCN3C)nc(-c3noc4c3CCC[C@@]43CCCc4sc(N)c(C#N)c43)n2)CC12CC2 [Ib-2] | 0.3 nM | 9.00 | 9.00 | 111 µg/mL (≈ 170 µM) | 77 µg/mL (≈ 118 µM)
3 | C=CC(=O)N1[C@@H](C)CN(c2cc(-c3noc4c3CCC[C@@]43CCCc4sc(N)c(C#N)c43)nc(O[C@@H](C)[C@@H]3CCCN3C)n2)C[C@@H]1C [Ib-4] | 0.1 nM | 9.40 | > 9.00 | > 140 µg/mL | 129 µg/mL (≈ 196 µM)
4 | C[C@H](Oc1nc(-c2noc3c2CCC[C@@]32CCCc3sc(N)c(C#N)c32)cc(N2C[C@H](C)N(C(=O)/C=C/CF)[C@@H](C)C2)n1)[C@@H]1CCCN1C [Ib-7] | 1.6 nM | 8.33 | 8.40 | > 139 µg/mL | 108 µg/mL (≈ 157 µM)
5 | C=CC(=O)N1[C@@H](C)CN(c2cc(-c3onc4c3CCC[C@@]43CCCc4sc(N)c(C#N)c43)nc(O[C@@H](C)[C@@H]3CCCN3C)n2)C[C@@H]1C [Ia-4] | 0.1 nM |  | > 9.00 | > 163 µg/mL | > 160 µg/mL
6 | C[C@H](Oc1nc(-c2noc3c2CCC[C@@]32CCCc3sc(N)c(C#N)c32)cc(N2C[C@H](C)N(C(=O)/C=C/c3cccnc3)[C@@H](C)C2)n1)[C@@H]1CCCN1C [Ib-8] | 25.1 nM | 7.57 | 7.07 | 102 µg/mL (≈ 139 µM) | 13 µg/mL (≈ 17.7 µM)

More lines, now with the values ahead:

Row | GI50 (Ba/F3 KRASG12C cells) | pIC50 [1] | pIC50 [2] | solubility at 24 h [3, 4] | solubility at 24 h [3, 5] | SMILES
7 | 1.6 nM | 8.28 | 8.70 | 113 µg/mL (≈ 167 µM) | 50 µg/mL (≈ 74.1 µM) | C=C(F)C(=O)N1[C@@H](C)CN(c2cc(-c3noc4c3CCC[C@@]43CCCc4sc(N)c(C#N)c43)nc(O[C@@H](C)[C@@H]3CCCN3C)n2)C[C@@H]1C [Ib-6]
8 | 15.1 nM | 6.43 | 7.05 | 83 µg/mL (≈ 118 µM) | 114 µg/mL (≈ 163 µM) | COC/C=C/C(=O)N1[C@@H](C)CN(c2cc(-c3noc4c3CCC[C@@]43CCCc4sc(N)c(C#N)c43)nc(O[C@@H](C)[C@@H]3CCCN3C)n2)C[C@@H]1C [Ib-9]
9 | 0.8 nM | 8.08 | 9.00 | 125 µg/mL (≈ 185 µM) | 57 µg/mL (≈ 84.5 µM) | C=C(F)C(=O)N1[C@@H](C)CN(c2cc(O[C@@H](C)[C@@H]3CCCN3C)nc(-c3onc4c3CCC[C@@]43CCCc4sc(N)c(C#N)c43)n2)C[C@@H]1C [Ia-1]
10 | 0.2 nM | 8.89 | > 9.00 | 130 µg/mL (≈ 198 µM) | 121 µg/mL (≈ 184 µM) | C=CC(=O)N1[C@@H](C)CN(c2cc(O[C@@H](C)[C@@H]3CCCN3C)nc(-c3noc4c3CCC[C@@]43CCCc4sc(N)c(C#N)c43)n2)C[C@@H]1C [Ib-3]
11 | 0.5 nM | 8.38 | 9.00 |  |  | C[C@H](Oc1cc(N2C[C@H](C)N(C(=O)/C=C/CF)[C@@H](C)C2)nc(-c2noc3c2CCC[C@@]32CCCc3sc(N)c(C#N)c32)n1)[C@@H]1CCCN1C [Ib-1]
12 | 0.5 nM | 8.11 | 9.00 | 116 µg/mL (≈ 172 µM) | 40 µg/mL (≈ 59.3 µM) | C=C(F)C(=O)N1[C@@H](C)CN(c2cc(O[C@@H](C)[C@@H]3CCCN3C)nc(-c3noc4c3CCC[C@@]43CCCc4sc(N)c(C#N)c43)n2)C[C@@H]1C [Ib-5]
13 | 0.1 nM | 8.96 | > 9.00 | > 156 µg/mL | 126 µg/mL (≈ 192 µM) | C=CC(=O)N1[C@@H](C)CN(c2cc(O[C@@H](C)[C@@H]3CCCN3C)nc(-c3onc4c3CCC[C@@]43CCCc4sc(N)c(C#N)c43)n2)C[C@@H]1C [Ia-2]
